# Patent publication US10239876B2, “Triaza-spirodecanones as DDR1 inhibitors” (Hoffmann La-Roche Inc., priority 2015, dated 2019)
# pIC50: −log10 of the molar value.
# Target: intracellular domain of the DDR1 protein (Homo sapiens (Human), UniProt Q08345)
# Assay: In vitro binding competition assay for DDR1 (Eu-labeled anti-GST antibody / tracer FRET)
# Conditions: recombinant GST-tagged protein, one hour incubation at room temperature
# Source text: This assay is based on the intracellular domain of the DDR1 protein which contains the kinase active site. The recombinant protein additionally carries a GST-tag that can be recognized by an Eu-labeled anti-GST antibody. […] Excitation energy absorbed by the Europium complex (350 nm flash light or pulsed laser) is transferred to a suitable fluorescent dye, if it is in close proximity. Compounds binding competitively with the tracer molecule will displace the bound tracer molecules and reduce the FRET signal in a dose dependent manner. Due to the long lifetime of the Eu excited state, the emission of the donor and the acceptor can be measured in time-gated mode such that most of the intrinsic fluorescence contributions have already decayed. […] This sensitive detection method enables protein concentrations below 20 nM.
# Protein, tracer and labeled antibody were obtained from commercial sources. […] Dose response curves were generated from 16 compound dilutions in DMSO as solvent compound dilutions, a solution containing protein and labeled antibody, and a solution containing the tracer which is added in the last step. The fluorescence of donor and acceptor were then measured after one hour incubation at room temperature. Every assay run was quality-controlled with dose response curves for two reference compounds.
# Sequence of intracellular domain of the DDR1 protein (Q08345 439-913): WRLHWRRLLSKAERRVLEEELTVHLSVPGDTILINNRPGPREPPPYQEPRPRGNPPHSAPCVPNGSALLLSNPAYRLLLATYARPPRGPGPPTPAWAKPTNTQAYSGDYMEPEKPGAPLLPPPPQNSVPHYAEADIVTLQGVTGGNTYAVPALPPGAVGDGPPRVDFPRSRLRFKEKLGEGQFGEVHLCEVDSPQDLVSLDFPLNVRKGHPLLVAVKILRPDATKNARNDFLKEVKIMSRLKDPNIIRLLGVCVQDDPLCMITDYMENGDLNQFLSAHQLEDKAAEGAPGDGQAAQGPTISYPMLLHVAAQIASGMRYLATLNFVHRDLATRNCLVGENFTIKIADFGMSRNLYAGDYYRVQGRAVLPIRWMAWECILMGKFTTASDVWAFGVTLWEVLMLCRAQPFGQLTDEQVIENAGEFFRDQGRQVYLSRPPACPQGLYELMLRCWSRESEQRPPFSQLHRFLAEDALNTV
row,pIC50,Compound
1,7.81,"O=C(CN1CN(c2ccccc2)C2(CCN(C(=O)c3ccc4[nH]ncc4c3)CC2)C1=O)NCC(F)(F)F [Example 7, 2-(8-(1H-Indazole-5-carbonyl)-4-oxo-1-phenyl-1,3,8-triazaspiro[4.5]decan-3-yl)-N-(2,2,2-trifluoroethyl)acetamide]"
2,7.71,"O=C(CN1CN(c2ccccc2)C2(CCN(C(=O)c3ccc4[nH]ncc4n3)CC2)C1=O)NCC(F)(F)F [Example 91, 2-(4-Oxo-1-phenyl-8-(1H-pyrazolo[4,3-b]pyridine-5-carbonyl)-1,3,8-triazaspiro[4.5]decan-3-yl)-N-(2,2,2-trifluoroethyl)acetamide]"
